For nine molecules, TGI and GI50 results are on record in PubChem BioAssay (NCI).

“And” between values parts separate entries of the source, which are not always exact repeats. Equal entries are not always repeated.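 Following 48 hours of exposure in 96-well plates, responses at five concentrations were used to interpolate endpoints linearly. GI50 marks 50% less growth. At the TGI there is no net growth.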

Test systems include HCT-15 colon; HS 578T breast; MDA-MB-435; OVCAR-3 ovarian; OVCAR-4 ovarian; OVCAR-8 ovarian; RXF 393 renal; SK-MEL-28 melanoma; SR leukemia; SW-620 colon.
Holding throughout (assay): NCI tumour cell line growth inhibition, 48 h

`CCN(Cc1cc(Cl)cc(C)c1O)Cc1c(O)ccc2ccccc12`: the TGI in the experiment on HCT-15 colon amounted to 30.5 µM; with HS 578T breast it was 36.5 µM; with MDA-MB-435 it was 29.9 µM; in the experiment on OVCAR-3 ovarian, 29 µM; with OVCAR-4 ovarian, 31.6 µM; in the experiment with OVCAR-8 ovarian, 37.7 µM. The TGI amounted to 31.2 µM with RXF 393 renal, 34.8 µM in the experiment with SK-MEL-28 melanoma, 52.5 µM in the experiment on SR leukemia and 69.7 µM in the experiment on SW-620 colon.

For `CC(=O)CC[N+](C)(C)C`, the TGI with HCT-15 colon was 46.4 µM; in the experiment on HS 578T breast it was more than 39.3 µM; in the experiment on MDA-MB-435 it was 76.7 µM; in the experiment with OVCAR-3 ovarian, 40.7 µM; in the experiment on OVCAR-4 ovarian, 30.2 µM; with OVCAR-8 ovarian, 67.5 µM. The TGI in the experiment with RXF 393 renal was 20.1 µM; in the experiment with SK-MEL-28 melanoma it was 50 µM; in the experiment on SR leukemia it was 21.5 µM; in the experiment with SW-620 colon, 27.8 µM.

`Nc1c(C(=O)c2cccc(-c3cccnc3)c2)cnn1-c1ccc(F)cc1`: the GI50 is more than 25 µM in the experiment on HCT-15 colon; more than 25 µM in the experiment with HS 578T breast; more than 25 µM in the experiment with MDA-MB-435; more than 25 µM in the experiment on OVCAR-3 ovarian; more than 16.3 µM with OVCAR-4 ovarian; more than 13.9 µM in the experiment with OVCAR-8 ovarian. Also, the GI50 in the experiment with RXF 393 renal was more than 18.3 µM; in the experiment with SK-MEL-28 melanoma it was more than 25 µM; with SR leukemia, more than 25 µM; in the experiment with SW-620 colon, more than 25 µM. Moreover, the TGI in the experiment on HCT-15 colon, with HS 578T breast, in the experiment on MDA-MB-435, in the experiment on OVCAR-3 ovarian, in the experiment with OVCAR-4 ovarian and with OVCAR-8 ovarian was more than 25 µM in each case. For the same molecule, the TGI in the experiment on RXF 393 renal, in the experiment with SK-MEL-28 melanoma, in the experiment with SR leukemia and in the experiment on SW-620 colon was more than 25 µM in each case.

Turning to `COC(=O)CNC(=O)C(=O)c1c(O)c(O)c(C(C)C)c2cc(C)c(-c3c(C)cc4c(C(C)C)c(O)c(O)c(C(=O)C(=O)NCC(=O)OC)c4c3O)c(O)c12`, the GI50 in the experiment with HCT-15 colon was 1.49 µM; with HS 578T breast, 1.83 µM; in the experiment on MDA-MB-435 it was 2.46 µM; in the experiment with OVCAR-3 ovarian it was 1.61 µM; in the experiment on OVCAR-4 ovarian, 1.29 µM; with OVCAR-8 ovarian it was 2.05 µM. Also, the GI50 was 1.85 µM in the experiment with RXF 393 renal, 2 µM in the experiment on SK-MEL-28 melanoma, 1.32 µM in the experiment with SR leukemia and 1.96 µM in the experiment with SW-620 colon. Also, the TGI in the experiment on HCT-15 colon turned out to be 5.63 µM; in the experiment on HS 578T breast, 8.58 µM; in the experiment with MDA-MB-435, 9.3 µM; in the experiment on OVCAR-3 ovarian, 6.34 µM; in the experiment with OVCAR-4 ovarian, 4.58 µM; in the experiment on OVCAR-8 ovarian, 8.4 µM. Moreover, the TGI in the experiment on RXF 393 renal came out at 8.39 µM; in the experiment with SK-MEL-28 melanoma it was 8.61 µM; with SR leukemia, 7.76 µM; with SW-620 colon it was 6.94 µM.

In the case of `O=[N+]([O-])c1ccccc1/C=N\NC(=S)N/N=C/c1ccccc1[N+](=O)[O-]`, the GI50 in the experiment on HCT-15 colon was 3.76 µM; in the experiment on HS 578T breast, 3.61 µM; in the experiment on MDA-MB-435, 0.426 µM; in the experiment on OVCAR-3 ovarian, 1.95 µM; in the experiment with OVCAR-4 ovarian, 20.6 µM; in the experiment with OVCAR-8 ovarian it was 11.9 µM. Also, the GI50 with RXF 393 renal was 11.6 µM; in the experiment on SK-MEL-28 melanoma it was 8.44 µM; in the experiment on SR leukemia, 2.87 µM; in the experiment on SW-620 colon, 4.29 µM. Besides, the TGI in the experiment with HCT-15 colon was more than 100 µM; with HS 578T breast, 33.6 µM; in the experiment on MDA-MB-435, 3.62 µM; in the experiment on OVCAR-3 ovarian, 4.72 µM; in the experiment on OVCAR-4 ovarian it was more than 100 µM; with OVCAR-8 ovarian, more than 100 µM. Also, the TGI in the experiment with RXF 393 renal, in the experiment with SK-MEL-28 melanoma, in the experiment with SR leukemia and in the experiment on SW-620 colon was more than 100 µM in each case.

Consider `CCc1nc(N)nc(N)c1C#CC(C)c1ccc(-c2ccncc2)cc1Cl` (configuration not stated), for which the GI50 is < 0.005 µM and 0.0127 µM in the experiment with HCT-15 colon; 0.687 µM and 2.25 µM with HS 578T breast; 0.0421 µM and 0.098 µM in the experiment with OVCAR-3 ovarian; < 0.005 µM and 0.0299 µM in the experiment on OVCAR-8 ovarian; 0.141 µM and 0.312 µM in the experiment on RXF 393 renal; 0.0645 µM and 0.375 µM in the experiment with SK-MEL-28 melanoma. Also, in the experiment with SW-620 colon, the GI50 was less than 0.005 µM. Also, the TGI in the experiment on HCT-15 colon was 5.24 µM and 11.9 µM; with HS 578T breast, 3.47 µM and 19.9 µM; in the experiment on MDA-MB-435, 4.85 µM and 14.3 µM; with OVCAR-3 ovarian, 2.06 µM and 13.3 µM; in the experiment on OVCAR-4 ovarian, 7.39 µM and 26.2 µM; in the experiment on OVCAR-8 ovarian it was 7.66 µM and 37.7 µM. In addition, the TGI in the experiment with RXF 393 renal is 2.12 µM and 7.44 µM; in the experiment with SK-MEL-28 melanoma, 4.52 µM and 17 µM; in the experiment on SR leukemia, 2.27 µM and 6.27 µM; with SW-620 colon, 6.58 µM and 14.9 µM.

Consider `Cc1cc(NC(=O)NCCOc2ccc(N3C(N)=NC(N)=NC3(C)C)cc2Cl)ccc1S(=O)(=O)F`, for which the GI50 in the experiment on HCT-15 colon was 49 µM; with HS 578T breast, 9.84 µM; in the experiment with MDA-MB-435, 0.626 µM; in the experiment with OVCAR-3 ovarian it was 5.24 µM; with OVCAR-4 ovarian, 2.75 µM; with OVCAR-8 ovarian it was 4.91 µM. For the same molecule, the GI50 in the experiment with RXF 393 renal is 2.05 µM; in the experiment with SK-MEL-28 melanoma it was 3.59 µM; in the experiment on SR leukemia, 0.493 µM; in the experiment on SW-620 colon it was 0.661 µM. Besides, the TGI with HCT-15 colon is more than 100 µM; in the experiment on HS 578T breast it was 76.8 µM; with MDA-MB-435, more than 100 µM; in the experiment with OVCAR-3 ovarian, more than 71 µM; in the experiment on OVCAR-4 ovarian, more than 77.5 µM; in the experiment with OVCAR-8 ovarian, more than 100 µM. The TGI is more than 100 µM in the experiment on RXF 393 renal, more than 91.7 µM in the experiment on SK-MEL-28 melanoma, 40 µM in the experiment with SR leukemia and more than 100 µM in the experiment with SW-620 colon.

As for `O=C(O)CCC(O)=C1S(=O)(=O)OCCOS1(=O)=O`, the TGI with HCT-15 colon, in the experiment with HS 578T breast, with MDA-MB-435, in the experiment on OVCAR-3 ovarian, in the experiment on OVCAR-4 ovarian and in the experiment on OVCAR-8 ovarian was more than 100 µM throughout. The TGI in the experiment with RXF 393 renal, in the experiment with SK-MEL-28 melanoma, in the experiment with SR leukemia and in the experiment on SW-620 colon was more than 100 µM throughout.

Consider `COc1ccc(CCN2CCCn3c2nc2ccccc2c3=O)cc1`, for which the GI50 was 0.0444 µM in the experiment on HCT-15 colon; 0.356 µM with HS 578T breast; 0.022 µM with MDA-MB-435; 0.0328 µM in the experiment with OVCAR-3 ovarian; 0.353 µM in the experiment on OVCAR-4 ovarian; 0.423 µM in the experiment with OVCAR-8 ovarian. Moreover, the GI50 was 0.2 µM with RXF 393 renal, 2.42 µM with SK-MEL-28 melanoma, 0.0448 µM with SR leukemia and 0.0508 µM with SW-620 colon. Besides, the TGI in the experiment with HCT-15 colon was more than 100 µM; with HS 578T breast it was more than 100 µM; in the experiment on MDA-MB-435 it was 0.061 µM; with OVCAR-3 ovarian, 0.136 µM; in the experiment on OVCAR-4 ovarian, more than 100 µM; in the experiment on OVCAR-8 ovarian, more than 100 µM. Besides, the TGI in the experiment with RXF 393 renal is 35.8 µM; in the experiment on SK-MEL-28 melanoma it was more than 100 µM; in the experiment on SR leukemia, more than 100 µM; in the experiment with SW-620 colon it was more than 100 µM.
